Assay results reported in ChEMBL document CHEMBL1143717, “Biologically active natural products from Mongolian medicinal plants Scorzonera divaricata and Scorzonera pseudodivaricata” (J Nat Prod, 2007).
Activity calls are given as the source filed them. The calls are words filed in the database; no cut-off is given here.

Tested on: Radical scavenging activity
Assay: Antioxidant activity assessed as DPPH radical scavenging activity
Assay type: functional

Row | Compound | Activity
1 | CC1=CC(=O)C2=C(C)C[C@H](OC(=O)CCc3ccc(OC4O[C@H](CO)[C@@H](O)[C@H](O)[C@H]4O)cc3)[C@@H]3[C@H](OC(=O)[C@H]3C)[C@@H]12 (some centres not stated) | inactive
2 | CCCCCC(=O)O[C@H]1[C@H](Oc2cc(CC(=O)CCc3ccc(O)cc3)c(O)c(C(=O)O)c2)O[C@H](CO)[C@@H](O)[C@@H]1O | inactive
